25 compounds from patent US12173020B2, “New-type oxazolidinone compounds and preparation method therefor” (priority 2019, dated 2024) can be followed below.

In assay [1] the test system is vancomycin-resistant Enterococcus (VRE). Nature of the assay: agar dilution method, inhibitory effect on VRE. In kind it is cell-based. Conditions: for MIC50: Enterococcus, read-out: Minimum inhibitory concentration (MIC50, μg/ml) VRE. The text has this: (§1) In order to determine the antibacterial activity of these new oxazolidinone-based compounds, an agar dilution method was used to test the inhibitory effect on methicillin-resistant Staphylococcus aureus (MRSA) and vancomycin-resistant Enterococcus (VRE). The bacteria inhibition effect was expressed as minimum inhibitory concentration (MIC50, μg/ml) The test results are shown in the following table.

Assay [2] concerns methicillin-resistant Staphylococcus aureus (MRSA). Nature of the assay: agar dilution method, inhibitory effect on MRSA. It counts as cell-based. Conditions: for MIC50: Staphylococcus aureus, read-out: Minimum inhibitory concentration (MIC50, μg/ml) MRSA.
Excerpt: as §1
On the technique in general: In agar dilution, organisms are placed on agar that contains the substance at set levels.

For the compound `Cn1nnc(-c2ccc(-c3ccc(N4C[C@H](COP(=O)(O)O)OC4=O)cc3F)cn2)n1` [Tedizolid phosphate, reference compound], the MIC50 in assay [1] and in assay [2] was 2 µg/mL each time.
In the case of `CCn1nnc(-c2ccc(-c3ccc(N4C[C@H](CO)OC4=O)cc3F)cn2)n1.O=P(O)(O)O` [compound 79, (R)-3-(3-fluoro-4-(6-(2-ethyl-2H-tetrazol-5-yl)pyridin-3-yl)phenyl)-5-(hydroxymethyl) oxazolidin-2-one phosphate], the MIC50 in assay [1] was found to be 1.5 µg/mL; in assay [2], 1.8 µg/mL.
For `CCn1nnc(-c2ccc(-c3ccc(N4C[C@@H](CO)OC4=O)cc3F)cn2)n1.O=P(O)(O)O` [compound 80, (S)-3-(3-fluoro-4-(6-(2-ethyl-2H-tetrazol-5-yl)pyridin-3-yl)phenyl)-5-(hydroxymethyl) oxazolidin-2-one phosphate], the MIC50 in assay [1] and in assay [2] was 1.9 µg/mL in each case.
For `CCCn1nnc(-c2ccc(-c3ccc(N4C[C@H](CO)OC4=O)cc3F)cn2)n1.O=P(O)(O)O` [compound 81, (R)-3-(3-fluoro-4-(6-(2-propyl-2H-tetrazol-5-yl)pyridin-3-yl)phenyl)-5-(hydroxymethyl) oxazolidin-2-one phosphate], the MIC50 in assay [1] and in assay [2] was 1.2 µg/mL throughout.
In the case of `CCCn1nnc(-c2ccc(-c3ccc(N4C[C@@H](CO)OC4=O)cc3F)cn2)n1.O=P(O)(O)O` [compound 82, (S)-3-(3-fluoro-4-(6-(2-propyl-2H-tetrazol-5-yl)pyridin-3-yl)phenyl)-5-(hydroxymethyl) oxazolidin-2-one phosphate], the MIC50 in assay [1] and in assay [2] was 1.2 µg/mL in each case.
Turning to `O=C1O[C@@H](CO)CN1c1ccc(-c2ccc(-c3nnn(C4CC4)n3)nc2)c(F)c1.O=P(O)(O)O` [compound 83, (R)-3-(3-fluoro-4-(6-(2-cyclopropyl-2H-tetrazol-5-yl)pyridin-3-yl)phenyl)-5-(hydroxymethyl) oxazolidin-2-one phosphate], the MIC50 in assay [1] came to 0.7 µg/mL; in assay [2], 0.8 µg/mL.
As to `O=C1O[C@H](CO)CN1c1ccc(-c2ccc(-c3nnn(C4CC4)n3)nc2)c(F)c1.O=P(O)(O)O` [compound 84, (S)-3-(3-fluoro-4-(6-(2-cyclopropyl-2H-tetrazol-5-yl)pyridin-3-yl)phenyl)-5-(hydroxymethyl) oxazolidin-2-one phosphate], the MIC50 in assay [1] and in assay [2] was 0.4 µg/mL in each case.
For the compound `C=Cn1nnc(-c2ccc(-c3ccc(N4C[C@H](CO)OC4=O)cc3F)cn2)n1.O=P(O)(O)O` [compound 85, (R)-3-(3-fluoro-4-(6-(2-vinyl-2H-tetrazol-5-yl)pyridin-3-yl)phenyl)-5-(hydroxymethyl) oxazolidin-2-one phosphate], the MIC50 in assay [1] and in assay [2] was 0.2 µg/mL throughout.
Take `C=Cn1nnc(-c2ccc(-c3ccc(N4C[C@@H](CO)OC4=O)cc3F)cn2)n1.O=P(O)(O)O` [compound 86, (S)-3-(3-fluoro-4-(6-(2-vinyl-2H-tetrazol-5-yl)pyridin-3-yl)phenyl)-5-(hydroxymethyl) oxazolidin-2-one phosphate]: the MIC50 in assay [1] and in assay [2] was 0.3 µg/mL throughout.
As for `CC(O)[C@H]1CN(c2ccc(-c3ccc(-c4nnn(C)n4)nc3)c(F)c2)C(=O)O1.O=P(O)(O)O` (stereo partly drawn) [compound 87, (R)-3-(3-fluoro-4-(6-(2-methyl-2H-tetrazol-5-yl)pyridin-3-yl)phenyl)-5-(1-hydroxyethyl) oxazolidin-2-one phosphate], the MIC50 in assay [1] and in assay [2] was 0.3 µg/mL in each case.
For the compound `CC(O)[C@@H]1CN(c2ccc(-c3ccc(-c4nnn(C)n4)nc3)c(F)c2)C(=O)O1.O=P(O)(O)O` (stereo partly drawn) [compound 88, (S)-3-(3-fluoro-4-(6-(2-methyl-2H-tetrazol-5-yl)pyridin-3-yl)phenyl)-5-(1-hydroxyethyl) oxazolidin-2-one phosphate], the MIC50 in assay [1] and in assay [2] was 0.5 µg/mL throughout.
Turning to `CCC(O)[C@H]1CN(c2ccc(-c3ccc(-c4nnn(C)n4)nc3)c(F)c2)C(=O)O1.O=P(O)(O)O` (stereo partly drawn) [compound 89, (R)-3-(3-fluoro-4-(6-(2-methyl-2H-tetrazol-5-yl)pyridin-3-yl)phenyl)-5-(1-hydroxypropyl) oxazolidin-2-one phosphate], the MIC50 in assay [1] and in assay [2] was 0.4 µg/mL throughout.
With `CCC(O)[C@@H]1CN(c2ccc(-c3ccc(-c4nnn(C)n4)nc3)c(F)c2)C(=O)O1.O=P(O)(O)O` (stereo partly drawn) [compound 90, (S)-3-(3-fluoro-4-(6-(2-methyl-2H-tetrazol-5-yl)pyridin-3-yl)phenyl)-5-(1-hydroxypropyl) oxazolidin-2-one phosphate], the MIC50 in assay [1] and in assay [2] was 2 µg/mL in each case.
Turning to `Cn1nnc(-c2ccc(-c3ccc(N4C[C@H](C(O)F)OC4=O)cc3F)cn2)n1.O=P(O)(O)O` (stereo partly drawn) [compound 91, (R)-3-(3-fluoro-4-(6-(2-methyl-2H-tetrazol-5-yl)pyridin-3-yl)phenyl)-5-(hydroxyfluoromethyl) oxazolidin-2-one phosphate], the MIC50 in assay [1] and in assay [2] was 1.3 µg/mL throughout.
Turning to `Cn1nnc(-c2ccc(-c3ccc(N4C[C@@H](C(O)F)OC4=O)cc3F)cn2)n1.O=P(O)(O)O` (stereo partly drawn) [compound 92, (S)-3-(3-fluoro-4-(6-(2-methyl-2H-tetrazol-5-yl)pyridin-3-yl)phenyl)-5-(hydroxyfluoromethyl) oxazolidin-2-one phosphate], the MIC50 in assay [1] and in assay [2] was 0.9 µg/mL throughout.
In the case of `Cn1nnc(-c2ccc(-c3ccc(N4C[C@H](C(O)C(F)(F)F)OC4=O)cc3F)cn2)n1.O=P(O)(O)O` (stereo partly drawn) [compound 93, (R)-3-(3-fluoro-4-(6-(2-methyl-2H-tetrazol-5-yl)pyridin-3-yl)phenyl)-5-(1-hydroxy-2-trifluoroethyl) oxazolidin-2-one phosphate], the “Minimum inhibitory concentration (MIC50, μg/ml) VRE” value in assay [1] was 0.7 µg/mL. For the same compound, in assay [2], the “Minimum inhibitory concentration (MIC50, μg/ml) MRSA” value is 0.7 µg/mL.
For `Cn1nnc(-c2ccc(-c3ccc(N4C[C@@H](C(O)C(F)(F)F)OC4=O)cc3F)cn2)n1.O=P(O)(O)O` (stereo partly drawn) [compound 94, (S)-3-(3-fluoro-4-(6-(2-methyl-2H-tetrazol-5-yl)pyridin-3-yl)phenyl)-5-(1-hydroxy-2-trifluoroethyl) oxazolidin-2-one phosphate], the “Minimum inhibitory concentration (MIC50, μg/ml) VRE” value in assay [1] is 1.5 µg/mL. In addition, the “Minimum inhibitory concentration (MIC50, μg/ml) MRSA” value in assay [2] was determined as 1.5 µg/mL.
As for `CCn1nnc(-c2ccc(-c3ccc(N4C[C@H](C(O)C(F)(F)F)OC4=O)cc3F)cn2)n1.O=P(O)(O)O` (stereo partly drawn) [compound 95, (R)-3-(3-fluoro-4-(6-(2-ethyl-2H-tetrazol-5-yl)pyridin-3-yl)phenyl)-5-(1-hydroxy-2-trifluoroethyl) oxazolidin-2-one phosphate], the “Minimum inhibitory concentration (MIC50, μg/ml) VRE” value in assay [1] worked out at 0.3 µg/mL. For the same compound, the “Minimum inhibitory concentration (MIC50, μg/ml) MRSA” value in assay [2] worked out at 0.3 µg/mL.
For the compound `CCn1nnc(-c2ccc(-c3ccc(N4C[C@@H](C(OP(=O)(O)O)C(F)(F)F)OC4=O)cc3F)cn2)n1` (stereo partly drawn) [compound 96, (S)-3-(3-fluoro-4-(6-(2-ethyl-2H-tetrazol-5-yl)pyridin-3-yl)phenyl)-5-(1-hydroxy-2-trifluoroethyl) oxazolidin-2-one phosphate], the “Minimum inhibitory concentration (MIC50, μg/ml) VRE” value in assay [1] stood at 0.8 µg/mL. In addition, the “Minimum inhibitory concentration (MIC50, μg/ml) MRSA” value in assay [2] is 0.8 µg/mL.
As for `CCn1nnc(-c2ccc(-c3ccc(N4C[C@H](C(C)O)OC4=O)cc3F)cn2)n1.O=P(O)(O)O` (stereo partly drawn) [compound 97, (R)-3-(3-fluoro-4-(6-(2-ethyl-2H-tetrazol-5-yl)pyridin-3-yl)phenyl)-5-(1-hydroxyethyl) oxazolidin-2-one phosphate], the MIC50 in assay [1] and in assay [2] was 1.1 µg/mL in each case.
Take `CCn1nnc(-c2ccc(-c3ccc(N4C[C@@H](C(C)O)OC4=O)cc3F)cn2)n1.O=P(O)(O)O` (stereo partly drawn) [compound 98, (S)-3-(3-fluoro-4-(6-(2-ethyl-2H-tetrazol-5-yl)pyridin-3-yl)phenyl)-5-(1-hydroxyethyl) oxazolidin-2-one phosphate]: the MIC50 was 1.5 µg/mL in assay [1] and 1.6 µg/mL in assay [2].
As for `CCC(O)[C@H]1CN(c2ccc(-c3ccc(-c4nnn(CC)n4)nc3)c(F)c2)C(=O)O1.O=P(O)(O)O` (stereo partly drawn) [compound 99, (R)-3-(3-fluoro-4-(6-(2-ethyl-2H-tetrazol-5-yl)pyridin-3-yl)phenyl)-5-(1-hydroxypropyl) oxazolidin-2-one phosphate], the MIC50 in assay [1] and in assay [2] was 0.2 µg/mL throughout.
As to `CCC(O)[C@@H]1CN(c2ccc(-c3ccc(-c4nnn(CC)n4)nc3)c(F)c2)C(=O)O1.O=P(O)(O)O` (stereo partly drawn) [compound 100, (S)-3-(3-fluoro-4-(6-(2-ethyl-2H-tetrazol-5-yl)pyridin-3-yl)phenyl)-5-(1-hydroxypropyl) oxazolidin-2-one phosphate], the MIC50 in assay [1] came out at 0.3 µg/mL; in assay [2], 0.2 µg/mL.
With `CCn1nnc(-c2ccc(-c3ccc(N4C[C@H](C(O)F)OC4=O)cc3F)cn2)n1.O=P(O)(O)O` (stereo partly drawn) [compound 101, (R)-3-(3-fluoro-4-(6-(2-ethyl-2H-tetrazol-5-yl)pyridin-3-yl)phenyl)-5-(hydroxyfluoromethyl) oxazolidin-2-one phosphate], the MIC50 in assay [1] and in assay [2] was 0.4 µg/mL in each case.
As for `CCn1nnc(-c2ccc(-c3ccc(N4C[C@@H](C(O)F)OC4=O)cc3F)cn2)n1.O=P(O)(O)O` (stereo partly drawn) [compound 102, (S)-3-(3-fluoro-4-(6-(2-ethyl-2H-tetrazol-5-yl)pyridin-3-yl)phenyl)-5-(hydroxyfluoromethyl) oxazolidin-2-one phosphate], the MIC50 in assay [1] and in assay [2] was 0.2 µg/mL throughout.
